Marks after values point to notes of the source that are not given here.
Legend:
[1] = system: human nasopharyngeal carcinoma cell line CNE-2; test: MTT cell growth inhibition, CNE-2; format: cell-based; conditions: Homo sapiens; CNE-2, MTT assay, 72 h; read-out: IC50, growth of tumor cell line
Description: (§3) Experimental method: Cell lines (human non-small-cell lung cancer cell line A549, human colon cancer cell line LOVO, human nasopharyngeal carcinoma cell line CNE-2, human liver cancer cell line HepG2, human cervical carcinoma cell line Hela, human breast cancer cell lines MCF-7 and MDA-MB-231, human gastric carcinoma cell line NCI-N87, human prostatic cancer cell lines PC-3 and DU145, human leukemia cell line K562, human melanoma cell line A375, human neuroblastoma cell line SH-SY5H, human promyelocytic leukemia cell line HL-60, 5-FU-resistant human hepatocellular carcinoma cell line BEL-7402/5-Fu, doxorubicin-resistant hepatocellular carcinoma cell line HepG2/ADM, doxorubicin-resistant human breast cancer cell lines MCF-7/ADR) at logarithmic phase were resuspended in RPMI 1640 medium (containing 10% fetal bovine serum, 100 U/mL penicillin-streptomycin). Then, 100 μL of cells (cell concentration was 5×10^5/mL) were seeded into 96 wells plate. After 24 h incubation at 37° C. with 5% CO2, tested compounds were added (the control group without compound) for an additional 72 h incubation. After that, 30 μL of MTT [3-(4,5-Dimethylthiazol-2-yl)-2,5-diphenyltetrazolium bromide] solution (5 mg/mL) was added into each well and incubated for another 4 h at 37° C. and then the formazan crystals were solubilized with 100 μL DMSO. Finally, absorbance of each well was determined at 570 nm by a microplate reader (Thermo).
(§4) The concentration required to inhibit cell growth by 50% (IC50) was calculated from survival curves.

MDA-MB-231 xenografts = MDA-MB-231 xenografts in nude mice; format: in vivo, BALB/nu/nu mice; conditions: MDA-MB-231 xenograft nude mice; for Anti-tumor rate (%) / Body weight (g) Post-dose / Tumor weight: 1 mg/kg i.p. every two days, 8 administrations; for Body weight (g) Pre-dose: before dosing
Description: (§1) Experimental method: The MDA-MB-231 cells at logarithmic phase were digested and washed twice with PBS. Then, 100 μL cells (1×10^7) were inoculated subcutaneously on the backs of female BALB/nu/nu mice. After tumors grew to 70˜100 mm^3, the mice were divided randomly into saline group (control group), vinca alkaloids groups (VLB, CCRB, CCFN, CCXJ) and vinca alkaloid derivatives groups (JJ-CCJ, BX-CCJ, JJ-CCRB, BX-CCRB, JJ-CCFN, BX-CCFN, JJ-CCXJ and BX-CCXJ), with six mice per group. 1 mg/kg drugs were injected intraperitoneally every two days, meanwhile body weight and tumor sizes were measured. Experiment was ended after 8 times of drug administration, then tumor and organs were stripped. Tumor volumes were measured using the following formula: V=½(ab^2), whereas a refers to the longest diameter and b is the shortest diameter.

[2] = system: human breast cancer cell line MDA-MB-231; test: MTT cell growth inhibition, MDA-MB-231; format: cell-based; conditions: Homo sapiens; MDA-MB-231, MTT assay, 72 h; read-out: IC50, growth of tumor cell line
Description: as §3, §4

[3] = system: doxorubicin-resistant hepatocellular carcinoma cell line HepG2/ADM; test: MTT cell growth inhibition, HepG2/ADM; format: cell-based, human; conditions: Homo sapiens, MTT assay, 72 h, read-out: IC50, growth of tumor cell line
[4] = system: human prostatic cancer cell line DU145; test: MTT cell growth inhibition, DU-145; format: cell-based; conditions: Homo sapiens; DU-145, MTT assay, 72 h; read-out: IC50, growth of tumor cell line
[5] = system: doxorubicin-resistant human breast cancer cell lines MCF-7/ADR; test: MTT cell growth inhibition, MCF-7/ADR; format: cell-based; conditions: Homo sapiens, NCI/ADR-RES, MTT assay, 72 h, read-out: IC50, growth of tumor cell line
Description: as §3, §4

[6] = system: human non-small-cell lung cancer cell line A549; test: MTT cell growth inhibition, A549; format: cell-based; conditions: Homo sapiens; A549, MTT assay, 72 h; read-out: IC50, growth of tumor cell line
[7] = system: human colon cancer cell line LOVO; test: MTT cell growth inhibition, LOVO; format: cell-based; conditions: Homo sapiens; LOVO (FAPα positive), MTT assay, 72 h; read-out: IC50, growth of tumor cell line
[8] = system: human cervical carcinoma cell line Hela; test: MTT cell growth inhibition, Hela; format: cell-based; conditions: Homo sapiens, MTT assay, 72 h, read-out: IC50, growth of tumor cell line
Description: as §3, §4

HepG2 xenografts = HepG2 xenografts in nude mice; format: in vivo; conditions: HepG2 xenograft nude mice; for Anti-tumor rate (%) / Body weight (g) Post-dose / Tumor weight: 1 mg/kg; for Body weight (g) Pre-dose: before dosing
Description: as §1
(§2) Tumor xenograft models of HepG2, LOVO, K562 and HL-60 cell lines were performed as the method described above.

K562 xenografts = K562 xenografts in nude mice; format: in vivo; conditions: K562 xenograft nude mice; for Anti-tumor rate (%) / Body weight (g) Post-dose / Tumor weight: 1 mg/kg; for Body weight (g) Pre-dose: before dosing
Description: as §1, §2

[9] = system: human liver cancer cell line HepG2; test: MTT cell growth inhibition, HepG2; format: cell-based; conditions: Homo sapiens; HepG2, MTT assay, 72 h; read-out: IC50, growth of tumor cell line
Description: as §3, §4

[10] = system: human leukemia cell line K562; test: MTT cell growth inhibition, K562; format: cell-based; conditions: Homo sapiens; K562, MTT assay, 72 h; read-out: IC50, growth of tumor cell line
[11] = system: human promyelocytic leukemia cell line HL-60; test: MTT cell growth inhibition, HL-60; format: cell-based; conditions: Homo sapiens; HL-60, MTT assay, 72 h; read-out: IC50, growth of tumor cell line
[12] = system: human breast cancer cell line MCF-7; test: MTT cell growth inhibition, MCF-7; format: cell-based; conditions: Homo sapiens, MCF7; MCF-7, MTT assay, 72 h; read-out: IC50, growth of tumor cell line
Description: as §3, §4

LOVO xenografts = LOVO xenografts in nude mice; format: in vivo; conditions: LOVO xenograft nude mice; for Anti-tumor rate (%) / Body weight (g) Post-dose / Tumor weight: 1 mg/kg; for Body weight (g) Pre-dose: before dosing
Description: as §1, §2

HL-60 xenografts = HL-60 xenografts in nude mice; format: in vivo; conditions: HL-60 xenograft nude mice; for Anti-tumor rate (%) / Body weight (g) Post-dose / Tumor weight: 1 mg/kg; for Body weight (g) Pre-dose: before dosing
Description: as §1, §2

[13] = system: human prostatic cancer cell line PC-3; test: MTT cell growth inhibition, PC-3; format: cell-based; conditions: Homo sapiens; PC-3, MTT assay, 72 h; read-out: IC50, growth of tumor cell line
[14] = system: human neuroblastoma cell line SH-SY5H; test: MTT cell growth inhibition, SH-SY5H; format: cell-based; conditions: Homo sapiens, Neuroblastoma cell, MTT assay, 72 h, read-out: IC50, growth of tumor cell line
Description: as §3, §4

[15] = system: 5-FU-resistant human hepatocellular carcinoma cell line BEL-7402/5-Fu; test: MTT cell growth inhibition, BEL-7402/5-Fu; format: cell-based; conditions: Homo sapiens, Bel7402/5-FU, MTT assay, 72 h, read-out: IC50, growth of tumor cell line
Description: as §3, §4

[16] = system: human melanoma cell line A375; test: MTT cell growth inhibition, A375; format: cell-based; conditions: Homo sapiens, A-375; A375, MTT assay, 72 h; read-out: IC50, growth of tumor cell line
Description: as §3, §4

[17] = system: human gastric carcinoma cell line NCI-N87; test: MTT cell growth inhibition, NCI-N87; format: cell-based; conditions: Homo sapiens; NCI-N87, MTT assay, 72 h; read-out: IC50, growth of tumor cell line
Description: as §3, §4

Question: How did the IC50 [1] turn out when `CC[C@]12C=CCN3CC[C@@]4(c5cc([C@@]6(C(=O)OC)C[C@@H]7C[C@@H](C(C)(F)F)CN(Cc8c6[nH]c6ccccc86)C7)c(OC)cc5N(C)[C@H]4[C@@](O)(C(=O)NN)[C@@H]1O)[C@@H]32` [JJ-CCFN, hydrazinolyzed vinflunine] was run?
Answer: 198 ± 7.71 nM

Question: What about the “Anti-tumor rate (%)” value (MDA-MB-231 xenografts) of the same compound?
Answer: 75.10** %

Question: What about the “Body weight (g) Post-dose” value (MDA-MB-231 xenografts) of the same compound?
Answer: 16.3 ± 0.7 g

Question: What about the “Tumor weight” value (MDA-MB-231 xenografts) of the same compound?
Answer: 0.65 ± 0.13 g

Question: And the “Body weight (g) Pre-dose” value (MDA-MB-231 xenografts)?
Answer: 19.7 ± 2.1 g

Question: What about the IC50 [2] of the same compound?
Answer: 333 ± 12.5 nM

Question: What about the IC50 [3] of the same compound?
Answer: 277 ± 9.67 nM

Question: And the IC50 [4]?
Answer: 90.8 ± 5.45 nM

Question: And the IC50 [5]?
Answer: 713 ± 25.6 nM

Question: And the IC50 [6]?
Answer: 206 ± 6.79 nM

Question: What about the IC50 [7] of the same compound?
Answer: 313 ± 7.64 nM

Question: And the IC50 [8]?
Answer: 132 ± 6.67 nM

Question: And the “Anti-tumor rate (%)” value (HepG2 xenografts)?
Answer: 75.69** %

Question: What about the “Body weight (g) Post-dose” value (HepG2 xenografts) of the same compound?
Answer: 16.5 ± 0.4 g

Question: What about the “Tumor weight” value (HepG2 xenografts) of the same compound?
Answer: 0.62 ± 0.19 g

Question: What about the “Body weight (g) Pre-dose” value (HepG2 xenografts) of the same compound?
Answer: 22.3 ± 1.7 g

Question: And the “Anti-tumor rate (%)” value (K562 xenografts)?
Answer: 57.74** %

Question: And the “Body weight (g) Post-dose” value (K562 xenografts)?
Answer: 17.4 ± 0.9 g

Question: What about the “Tumor weight” value (K562 xenografts) of the same compound?
Answer: 0.71 ± 0.21 g

Question: What about the “Body weight (g) Pre-dose” value (K562 xenografts) of the same compound?
Answer: 21.5 ± 2.1 g

Question: What about the IC50 [9] of the same compound?
Answer: 103 ± 6.37 nM

Question: What about the IC50 [10] of the same compound?
Answer: 55.9 ± 7.59 nM

Question: And the IC50 [11]?
Answer: 198 ± 19.5 nM

Question: And the IC50 [12]?
Answer: 304 ± 9.44 nM

Question: What about the “Anti-tumor rate (%)” value (LOVO xenografts) of the same compound?
Answer: 76.31** %

Question: What about the “Body weight (g) Post-dose” value (LOVO xenografts) of the same compound?
Answer: 18.9 ± 2.1 g

Question: What about the “Tumor weight” value (LOVO xenografts) of the same compound?
Answer: 0.68 ± 0.13 g

Question: What about the “Body weight (g) Pre-dose” value (LOVO xenografts) of the same compound?
Answer: 22.7 ± 1.5 g

Question: And the “Anti-tumor rate (%)” value (HL-60 xenografts)?
Answer: 60.10** %

Question: And the “Body weight (g) Post-dose” value (HL-60 xenografts)?
Answer: 17.3 ± 0.1 g

Question: And the “Tumor weight” value (HL-60 xenografts)?
Answer: 0.83 ± 0.13 g

Question: What about the “Body weight (g) Pre-dose” value (HL-60 xenografts) of the same compound?
Answer: 19.2 ± 1.9 g

Question: And the IC50 [13]?
Answer: 98.3 ± 3.19 nM

Question: What about the IC50 [14] of the same compound?
Answer: 159 ± 20.4 nM

Question: What about the IC50 [15] of the same compound?
Answer: 166 ± 5.77 nM

Question: What about the IC50 [16] of the same compound?
Answer: 132 ± 9.51 nM

Question: What about the IC50 [17] of the same compound?
Answer: 133 ± 6.7 nM

Question: For `CCC1=C[C@@H]2CN(C1)Cc1c([nH]c3ccccc13)[C@@](C(=O)OC)(c1cc3c(cc1OC)N(C)[C@H]1[C@@](O)(C(=O)NN)[C@H](O)[C@]4(CC)C=CCN5CC[C@]31[C@@H]54)C2` [JJ-CCRB, hydrazinolyzed vinorelbine], which IC50 [1] is on record?
Answer: 100 ± 5.9 nM

Question: What about the “Anti-tumor rate (%)” value (MDA-MB-231 xenografts) of the same compound?
Answer: 77.39** %

Question: And the “Body weight (g) Post-dose” value (MDA-MB-231 xenografts)?
Answer: 16.7 ± 1.4 g

Question: And the “Tumor weight” value (MDA-MB-231 xenografts)?
Answer: 0.59 ± 0.18 g

Question: And the “Body weight (g) Pre-dose” value (MDA-MB-231 xenografts)?
Answer: 21.0 ± 2.7 g

Question: And the IC50 [2]?
Answer: 101 ± 7.65 nM

Question: And the IC50 [3]?
Answer: 182 ± 4.38 nM

Question: What about the IC50 [4] of the same compound?
Answer: 60.4 ± 7.01 nM

Question: What about the IC50 [6] of the same compound?
Answer: 73.1 ± 2.36 nM

Question: What about the IC50 [7] of the same compound?
Answer: 121 ± 10.3 nM

Question: What about the IC50 [8] of the same compound?
Answer: 61.3 ± 3.12 nM

Question: And the “Anti-tumor rate (%)” value (HepG2 xenografts)?
Answer: 75.29** %

Question: And the “Body weight (g) Post-dose” value (HepG2 xenografts)?
Answer: 17.0 ± 0.8 g

Question: And the “Tumor weight” value (HepG2 xenografts)?
Answer: 0.63 ± 0.29 g

Question: And the “Body weight (g) Pre-dose” value (HepG2 xenografts)?
Answer: 21.9 ± 1.6 g

Question: What about the “Anti-tumor rate (%)” value (K562 xenografts) of the same compound?
Answer: 59.52** %

Question: What about the “Body weight (g) Post-dose” value (K562 xenografts) of the same compound?
Answer: 18.2 ± 0.5 g

Question: What about the “Tumor weight” value (K562 xenografts) of the same compound?
Answer: 0.68 ± 0.20 g

Question: And the “Body weight (g) Pre-dose” value (K562 xenografts)?
Answer: 21.8 ± 1.4 g

Question: And the IC50 [9]?
Answer: 89.31 ± 0.71 nM

Question: And the IC50 [10]?
Answer: 49.7 ± 3.39 nM

Question: And the IC50 [11]?
Answer: 46.8 ± 5.41 nM

Question: What about the IC50 [12] of the same compound?
Answer: 122 ± 5.75 nM

Question: And the “Anti-tumor rate (%)” value (LOVO xenografts)?
Answer: 69.69** %

Question: And the “Body weight (g) Post-dose” value (LOVO xenografts)?
Answer: 16.4 ± 0.7 g

Question: What about the “Tumor weight” value (LOVO xenografts) of the same compound?
Answer: 0.87 ± 0.16 g

Question: What about the “Body weight (g) Pre-dose” value (LOVO xenografts) of the same compound?
Answer: 23.2 ± 2.1 g

Question: And the “Anti-tumor rate (%)” value (HL-60 xenografts)?
Answer: 65.38** %

Question: What about the “Body weight (g) Post-dose” value (HL-60 xenografts) of the same compound?
Answer: 17.1 ± 0.3 g

Question: What about the “Tumor weight” value (HL-60 xenografts) of the same compound?
Answer: 0.72 ± 0.21 g

Question: And the “Body weight (g) Pre-dose” value (HL-60 xenografts)?
Answer: 19.5 ± 1.3 g

Question: And the IC50 [13]?
Answer: 65.9 ± 3.05 nM

Question: And the IC50 [14]?
Answer: 32.9 ± 3.27 nM

Question: What about the IC50 [15] of the same compound?
Answer: 143 ± 8.57 nM

Question: And the IC50 [16]?
Answer: 20.4 ± 2.85 nM

Question: And the IC50 [17]?
Answer: 89 ± 3.34 nM

Reference: patent publication US10377774B2 (JINAN UNIVERSITY, priority 2013, dated 2019)
